Patent US10780061B2, “Composition comprising farnesol and use thereof” (Daegu Gyongbuk Institute of Science and Technology, priority 2014, dated 2020)

Experiments:
PARIS = experiment: Immunoprecipitation analysis for PARIS in tibialis anterior muscles; type: in vivo, mouse; settings: 4-month-old mice fed with farnesol 0, 1, 2, 3 days
Description: To examine whether farnesol increases PARIS farnesylation in muscles, immunoprecipitation of PARIS is performed in tibialis anterior muscles of 4-month-old mice (female, 22 g) fed with farnesol for a predetermined period, that is, 0, 1, 2, and 3 days. The tibialis anterior muscles which are removed from the mice fed with farnesol are mixed with a lysis buffer (10 mM Tris-HCl, pH 7.4, 150 mM NaCl, 5 mM EDTA, 1% triton X-100, 10 mM Na-β-glycerophosphate, and Complete Protease Inhibitor Mixture (Roche)), and homogenized using a Diax 900 tissue homogenizer. The tissues are left under refrigeration for 30 minutes, and centrifuged at 52,000 rpm for 20 minutes. A supernatant is used for immunoprecipitation.

human PGC-1α promoter = experiment: Screening of compounds using PGC-1α reporter (luciferase) C2C12 cell line; type: cell-based, mouse; settings: 10 μM, 48 hours, luciferase luminescence
Description: To screen for a compound activating PGC-1α gene expression in C2C12 myoblast, a PGC-1α reporter-expressing C2C12 cell line (hereinafter, referred to as ‘PGC-1α reporter cell line’ or ‘C2C12-PGC-1α cell line) is established. A vector expressing luciferase and dscGFP (destabilized Green Fluorescent Protein) under human PGC-1α promoter having a length of 1 kb is prepared, and this vector is inserted into lentivirus to transfect C2C12 cells. To select a cell line that genetically and stably expresses this vector, fluorescence emitted from green fluorescent protein (GFP) included in the vector is monitored. […] The expression level is measured by luminescence after addition of a luciferase substrate, thereby determining activation or inhibition of PGC-1α transcription by the compound.
The C2C12-PGC-1α reporter cell line prepared in Section 1 is used to screen a PGC-1α expression regulator from 2320 compounds provided by Korea chemical bank. […] 48 hours later, luminescence by luciferase is measured. in detail, cells are lysed in 10 μl of passive lysis buffer (50 mM Tris-HCl, 7.5 mM MgCl2, 750 mM NaCl, 5 mM EGTA, 1% Triton-x 100, 1 mM Na3VO4, 10 mM NaF, 0.1 mM PMSF (phenylmethanesulfonylfluoride), PI (protease inhibitor)) as a cell lysis buffer, and 50 μl of a luciferase substrate, luciferin was added thereto to allow enzymatic reaction. Then, luminescence is measured. […]

C2C12 myoblasts = experiment: Immunoblot of PGC-1α and differentiation markers in farnesol-treated myoblasts; type: cell-based
Description: DMEM (Dulbecco's Modified Eagle Medium) supplemented with 10% fetal bovine serum is used as a growth medium for culture of C2C12 myoblasts, and DMEM supplemented with 2% horse serum is used as a differentiation medium for differentiation of muscle cells. To induce differentiation of C2C12 myoblasts into muscle cells, 0.1 μM farnesol dissolved in DMSO or various concentrations of farnesol (0.1, 1, 10, 100 uM) are added, and DMSO is only added to a control group. The cells are cultured for 48 hours to induce differentiation, and then a lysis buffer (20 mM Tris-HCl, pH 8, 150 mM NaCl, 1% Triton X, Proteinase Inhibitor) is added to the harvested cells to allow lysis for 30 minutes, followed by centrifugation at 13,000 rpm for 30 minutes. The amount of protein in the cell lysis sample is quantified and an equal amount of protein is subjected to 8% SDS-PAGE. The protein is transferred onto a PVDF membrane, and then incubated in a blocking buffer containing 5% skim milk for 1 hour. HRP (horseradish peroxidase)-conjugated rabbit antibodies specific to individual proteins, diluted in 5% BSA, are reacted with the membrane at 4° C. for 12 hours, and then the membrane is washed with a wash buffer for 5 minutes three times. Thereafter, the membrane is exposed to X-ray film using an ECL reagent (Roche) to confirm protein expression levels.

[1] = system: fibrosis-related genes TGF-β, Col A1, collagen A3, Timp2; experiment: qRT-PCR of fibrosis-related genes in injured tibialis anterior muscle; type: in vivo; settings: old mouse, CTX injury
Description: (§1) 25-month-old mice are fed with a control diet or a farnesol-containing diet for 2 weeks, and then 2 ul of 10 uM cardiotoxin (CTX) per body weight (g) is directly injected into the muscle to induce muscle injury. After 4 days, muscles are frozen and sectioned, followed by histological staining.
In addition, expressions of fibrosis-related genes, TGF-β, Col A1, collagen A3, and Timp2 in tibialis anterior muscle are analyzed by qRT-PCR as described above.

[2] = system: AAV-PARIS WT or C631S-introduced tibialis anterior muscles; experiment: SDH staining of muscles introduced with AAV-PARIS WT or AAV-PARIS C631S; type: in vivo, mouse; settings: 5-month-old mice, farnesol diet 1 week, 4 days after virus
Description: 5-month-old C57BL/6 male mice (body weight of 22 g) are fed with a control diet or a farnesol-containing diet for 1 week, and then AAV-GFP, AAV-PARIS WT or AAV-PARIS C631S virus is injected into tibialis anterior muscles. Feeding conditions, not mentioned, are the same as in Section 2 of Example 2. After 4 days, the muscles are collected and histological staining is performed to analyze mitochondrial enzyme activity. The staining is performed by SDH enzyme activity staining. Viral transduction efficiency is evaluated by GFP fluorescence.

PARIS, PGC-1α [3] = experiment: Western blotting of hind limb muscles, high fat diet for 3 months; type: in vivo, mouse; settings: high fat diet with 0.5% compound
Text: (§2) To prepare the PGC-1α-inhibited model, 3-month-old mouse (female, body weight of 20 g) is fed with high fat diet, in which fat is increased to 60%, compared to a negative control group, for 5 days (short-term effect) or 3 months (long-term effect). The negative control group is fed with a general diet. Farnesol is mixed in the high fat diet at a content of 0.5% (weight of farnesol/weight of diet). A positive control group is fed with high fat diet containing a type II diabetes drug, metformin at a content of 0.5% (weight of metformin/weight of diet). Mice are fed with the general diet, the high fat diet, and the high fat diet containing farnesol or metformin for 3 months, and then hind limbs are removed to analyze muscle differentiation and mitochondrial enzyme activity.

PARIS, PGC-1α [4] = experiment: Immunoprecipitation for PGC-1α expression and PARIS-farnesylation, short-term high fat diet; type: in vivo, mouse; settings: high fat diet with 0.5% compound, 5 days, gastrocnemius muscles
Text: as §2
The effects of high fat diet and farnesol and metformin on PGC-1α induction by PARIS-farnesylation are evaluated. To analyze effect of short-term high fat diet, mice are fed with the above conditions for 5 days. Immunoblotting of PGC-1α and PARIS in gastrocnemius muscles of the mice is performed.
In this regard, PARIS-farnesylation is normalized to the immunoprecipitated PARIS expression level.

[5] = system: injured tibialis anterior muscles; experiment: Histological staining of cardiotoxin-injured tibialis anterior muscles of old animals; type: in vivo, mouse; settings: 25-month-old mice, farnesol diet 2 weeks, 4 days after CTX injury
Description: as §1
Hematoxylin and eosin (H&E) staining and sirus red staining are used in histological staining. Because muscle fibrosis […] and muscle regeneration is active at 4 days after muscle injury, effect of farnesol administration may be determined by histological staining. H&E staining is performed to examine structural recovery of injury, and sirus red staining is performed to examine the presence of fibrosis. […] That is, the control old animal has more thicker fibrosis regions located between the fibers than the experimental old animal treated with farnesol.

[6] = cited from earlier work
[7] = Fat mass ratio by dual-energy X-ray absorptiometry; type: in vivo; settings: old mouse, farnesol diet 4 months
Description: 22-month-old female mice (weighing 30 g) are fed with a control diet and a farnesol diet for 4 months. That is, 22-month-old mice are fed for 4 months, and then 26-month-old mice are analyzed. […] The same mouse is used as a control group, except that it is fed with a diet containing no farnesol. Muscle strength, energy expenditure, glucose tolerance, and fat accumulation of each mouse are evaluated.
The fat mass ratio is determined by dual-energy X-ray absorptiometry (LUNA PIXIMUS, GE Healthcare/LUNA), and measured on combined images after radiation at 40 kV X-ray and 80 kV X-ray four times, respectively.

[8] = 0.1-100 uM tested, from 0.1 to 10 uM, FIG. 1B
[9] = farnesol-treated myoblasts, FIG. 1A

## CC(C)=CCC/C(C)=C/CC/C(C)=C/CO [farnesol, (2E,6E)-3,7,11-trimethyldodeca-2,6,10-trien-1-ol]
PARIS
  farnesylated PARIS level in tibialis anterior muscle: further increases
Human PGC-1α promoter
  PGC-1α promoter activity relative to control group DMSO: greatly increasing
C2C12 myoblasts; [8]
  expression of MHC according to farnesol concentration: increased in myoblasts in a farnesol concentration-dependent manner
  expression of PGC-1α according to farnesol concentration: increased in myoblasts in a farnesol concentration-dependent manner
  expression of myogenin according to farnesol concentration: increased in myoblasts in a farnesol concentration-dependent manner
C2C12 myoblasts; farnesol-treated myoblasts, 48 hours, FIG. 1A
  increase in PGC-1α gene expression compared to control group: about 2.8 times
C2C12 myoblasts; [9]
  expression of myoblast determination protein (MyoD): increased
  expression of myosin heavy chain (MHC): increased
  expression of troponin T gene: increased
[1]
  expressions of fibrosis-related genes in injured tibialis anterior muscle: significantly reduced
[2]
  reduction in mitochondrial enzyme activity (SDH), AAV-PARIS WT-introduced muscles: inhibits a reduction
PARIS, PGC-1α [3]
  decreased PGC-1α expression by high fat diet: inhibited
  increased PARIS level by high fat diet: inhibited
PARIS, PGC-1α [4]
  reduction in PARIS-farnesylation by high fat diet: inhibited
  reduction in PGC-1α expression by high fat diet: inhibited
[5]
  percentage of blue and red stained muscle fibers (sirus red staining): remarkably reduced
  regenerative region and fibrotic area: a widespread regenerative region and a narrow fibrotic area
  size of muscle fibers stained red (H&E staining): increased
[6]
  lethal dose (LD) for 50% mouse mortality: 8,765 mg per mouse body weight (kg)
[7]
  fat mass ratio: significantly decreased
